Results from US10772827B2, “Composition for treating apoplexy through nasal administration” (INDUSTRY-UNIVERSITY COOPERATION FOUNDATION HANYANG …, priority 2015, dated 2020).
Where no end group is shown, it is not given here.

Legend:
[1] = rat, in vivo
Method: Intranasal administration of peptides was performed using a pressurized olfactory delivery (POD) device (Impel Neuropharma). Briefly, rats were kept in an isoflurane chamber containing 5% isoflurane for 3 minutes. After the animals were deeply anesthetized, the rats were placed in a supine position for drug injection. A POD tip (Impel Neuropharma) was carefully inserted into a nostril, and then a prefilled 25 μl catheter tube was slowly inserted appropriately 2 cm into the nostril. Thereafter, a peptide solution (PBS) (15 μl of PBS and 500 nM peptide) was slowly injected thereinto. A total of 700 μg of the FTP peptide was intranasally injected 12 hours after MCAO. After intranasal administration, the rats were maintained in the supine position for 5 minutes before they kept back to their designated cage.
A total of 500 μg of FTP was conjugated with Alexa-488 according to the manufacturer's guidelines (Molecular probes, Life Technologies). The Alexa^488 conjugated short peptide was intranasally injected with a final volume of 25 μl into each nostril using a POD device 12 hours after MCAO. After a predetermined period of time, the animals were sacrificed and tissues were excised therefrom. The tissues were washed with cold PBS and surface meninges were removed to avoid auto-fluorescence.

[2] = molecular target: T1, Fas (Mus musculus, UniProt P25446); assay: FTP binding to Fas-expressing hypoxic Neuro2a cells (flow cytometry, confocal microscopy); details: for binding to Fas-expressing hypoxic cells: hypoxic Neuro2a cells (OGD 24 h)
T1 construct: Neuro2a cells were cultured in an oxygen glucose deprivation (OGD) medium for 24 hour under hypoxic conditions to induce Fas expression; endogenous in cells; host or cells: Neuro2a (mouse neuroblastoma, ATCC), hypoxia/OGD-induced
T1 sequence (P25446 22-327): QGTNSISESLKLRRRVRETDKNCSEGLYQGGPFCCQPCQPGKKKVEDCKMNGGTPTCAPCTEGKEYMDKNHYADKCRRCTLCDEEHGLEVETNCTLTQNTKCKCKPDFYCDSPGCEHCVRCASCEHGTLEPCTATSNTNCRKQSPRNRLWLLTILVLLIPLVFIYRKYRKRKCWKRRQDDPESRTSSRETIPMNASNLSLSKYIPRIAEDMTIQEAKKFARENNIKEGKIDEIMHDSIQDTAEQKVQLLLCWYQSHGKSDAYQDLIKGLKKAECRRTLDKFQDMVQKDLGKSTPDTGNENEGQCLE
Method: (§1) Mouse neuroblastoma (Neuro2a, N2a) cells were obtained from ATCC and cultured in Dulbecco's Modified Eagle's Medium (DMEM) containing 10% fetal bovine serum (FBS), penicillin (100 IU/ml), and streptomycin (100 μg/ml). To duplicate an ischemia/reperfusion environment in vitro, the Neuro2a cells were cultured in a 6-well plate and maintained under a hypoxic condition (94% N2, 5% CO2, and 1% O2) in an oxygen glucose deprivation (OGD) medium (Life Technologies) for 24 hours. Subsequently, the cells were re-oxygenated in DMEM supplemented with 10% FBS (5% CO2, 20% O2, 37° C.) for 24 hours.
To identify co-localization of a FTP and a Fas receptor, Neuro2a cells were seeded on a cover slip and maintained under a hypoxic condition in an OGD medium for 24 hours. After incubating for 24 hours, the cells were treated with PBS containing 1% BSA and 0.05% Tween 20 and blocked at 37° C. for 2 hours, followed by staining with an anti-Fas antibody (Abcam) and an Alexa647-conjugated FTP at 4° C. for 2 hours. After incubating for 2 hours, the cells were washed three times with PBS containing 0.05% Tween 20, and stained with a secondary antibody (Abcam) at 4° C. for 2 hours under a dark condition. Nuclei of the cells were counterstained with Hoechst 33342 and fixed with an aqueous mounting solution (Abcam). Fluorescence signals in the cells were obtained using a TSP-SP5 confocal microscope (Leika, Germany).

[3] = molecular target: T1, Fas; assay: Competition assay of a Fas antibody and a FTP on hypoxic Neuro2a cells; format: binding; details: FIG. 1C
Method: FIG. 1C illustrates the results of a competition assay of a Fas antibody and a FTP, wherein the representative histograms show binding of a Fas antibody to hypoxic cells after treatment with a FTP; data is expressed as mean±SD of three replicated experiments; **P<0.01, ***P<0.001; Normoxia represents cells maintained under normal culture conditions, and Hypoxia represents cells cultured in an OGD medium for 24 hours, followed by re-oxygenation in a serum-containing DMEM medium for 24 hours; and FTP: Fas targeting peptide, Scr-FTP: scrambled peptide.

[4] = test system: hypoxia-induced Neuro2a cells; assay: Inhibition of in vitro Fas-mediated apoptosis (PE Annexin V / 7-AAD flow cytometry); format: cell-based, mouse
Method: Mouse neuroblastoma (Neuro2a, N2a) cells were obtained from ATCC and cultured in Dulbecco's Modified Eagle's Medium (DMEM) containing 10% fetal bovine serum (FBS), penicillin (100 IU/ml), and streptomycin (100 μg/ml). To duplicate an ischemia/reperfusion environment in vitro, the Neuro2a cells were cultured in a 6-well plate and maintained under a hypoxic condition (94% N2, 5% CO2, and 1% O2) in an oxygen glucose deprivation (OGD) medium (Life Technologies) for 24 hours. Subsequently, the cells were re-oxygenated in DMEM supplemented with 10% FBS (5% CO2, 20% O2, 37° C.) for 24 hours. To examine an inhibitory effect of a FTP, hypoxia-induced Neuro2a cells were treated with 1,000 μM of a FTP. After incubating for 24 hours, the cells were stained using a PE Annexin V apoptosis detection kit (BD Pharmingen™) according to the manufacturer's instructions.

[5] = test system: cleaved caspase-8 and caspase-3; assay: Western blotting of cleaved caspase-8 and caspase-3 in hypoxic Neuro2a cells; format: cell-based, mouse
Method: as §1
Neuro2a cells were lysed using a RIPA lysis buffer in the presence of […] phenylmethylsulfonyl fluoride (PMSF) as a protease inhibitor. A total of 50 μg of protein was loaded in a 12% SDS-PAGE gel and transferred onto a nitrocellulose transfer membrane (Whatman). Blots were blocked with 5% skim milk in TBST at room temperature for 2 hours and incubated at 4° C. with primary antibodies (Abcam). After a predetermined period of time, the blots were washed with TBST and incubated for 2 hours with secondary polyclonal antibodies coupled with HRP. After washing the blots three times with TBST, the blots were developed using an ECL western blotting substrate (Promega).

[6] = test system: MCAO rats; assay: TTC staining and measurement of infarct volume in MCAO rats; format: in vivo, rat; details: 15 mmol I.N. 12 hours after reperfusion
Method: (§2) Briefly, animals were anesthetized with 5% isoflurane. […] Thereafter, the CCA was completely occluded using a clip.
After a predetermined period of treatment, the brain was immediately removed. The expected area of damage in the brain was sliced into 3 slices (2 mm thick) including a brain matrix and then incubated in 2% 2,3,5-triphenyltetrazolium chloride (TTC, Sigma) at 37° C. for 10 minutes. The brain slices were then fixed in 4% paraformaldehyde and kept at 4° C. for 24 hours until imaging and photographing. The infarct volume was measured using Image J developed by the U.S. National Institute of Health (NIH) and calculated as commonly known.

[7] = test system: MCAO rats; assay: H&E histology of the brain of MCAO rats; format: in vivo, rat; details: FTP-inoculated group, day 1 to day 5 after reperfusion, FIG. 4F
From the text: as §2
Paraffin-embedded brain sections were de-paraffinized, rehydrated and then subjected to H&E staining according to standard protocols. The H&E stained sections were covered with cover slips and roughly analyzed using an optical microscope.

[8] = test system: MCAO rats; assay: TUNEL analysis of apoptosis in brain sections of MCAO rats; format: in vivo, rat; details: intranasal FTP, FIG. 4G
Method: as §2
A extent of apoptosis in de-paraffinized and rehydrated brain sections was analyzed through TUNEL analysis using an In Situ Cell Death Detection Kit (Roche, Germany) according to the manufacturer's instructions.

[9] = test system: MCAO rats; assay: Kaplan-Meier survival of MCAO rats; format: in vivo, rat; details: for animals survived: intranasal delivery; for rats that died over time: of the 18 rats per group, day 1 until day 5 after reperfusion, FIG. 4H
Method: as §2
The survival rate of each group of animals was evaluated using a previously described method^[3].

[10] = test system: MCAO rats; assay: Neurological evaluation (deficit grade 0-4) of MCAO rats; format: in vivo, rat
Method: as §2
The neurological deficits of each group of rats with or without peptide treatment were evaluated using a commonly known method^[2]. […] Next, the animals were placed on absorbent pads and tails thereof were pulled to examine their grips power. […] The rats were placed in a sufficiently wide space and allowed to move freely. Grade 3 was given for the case in which rats moved in a circle towards the paralyzed side when tails thereof were pulled. Grade 4 was given for the case in which rats spontaneously moved in a circle under a free environment.

[11] = molecular target: T2, Fas on hypoxic mouse neuroblastoma Neuro2a cells (mouse, UniProt P25446 22-327); assay: flow cytometry, Alexa488-labeled peptide on hypoxic Neuro2a cells
T2 construct: whole, on cells; also called Fas receptor; Fas-expressing hypoxic cells
T2 sequence (looked up): T1 sequence (P25446 22-327)

[12] = fluorescence-labeled peptide, FIG. 1B
[13] = hypoxic Neuro2a cells, 1,000 μM FTP, FIG. 2B

## FTP-A^488: FTP conjugated with Alexa-488 for bio-distribution (YCDEHFCY; cysteine pairing not given here; also: conjugated with Alexa-488, position not given here)
[1]
  fluorescence signal in other organs: no signal was found
  fluorescence signal in the lungs: slight fluorescence signal
  localization of labeled peptide in the brain: localization of labeled peptides occurred
  retention of labeled peptide in the brain: maintained in the brains of MCAO-treated rats

## YCDEHFCY [FTP]
[2]; [12]
  binding to Fas-expressing hypoxic cells: only bound to the Fas-expressing hypoxic cells
[2]; fluorescence-labeled peptide, normal (normoxic) Neuro2a cells, FIG. 1B
  binding to normal cells: die not bind to normal cells
[2]; hypoxic Neuro2a cells, FIG. 2A
  engagement to Fas-expressing cells, confocal microscopic images: strongly engaged to the Fas-expressing cells
[3]
  competitive assay between FTP and α-Fas antibody: bound to different regions of a Fas molecule
[4]; [13]
  decrease of annexin V positive cells: ~50%
  decrease of annexin V/7-ADD positive cells: ~50%
[4]; hypoxic Neuro2a cells, after FTP treatment
  decrease in 7-AAD positive cells: any significant decrease was not observed
[5]; FIG. 2C
  decrease of cleaved caspase-3: 40%
  decrease of cleaved caspase-8: ~50%
[5]; no dramatic change at full-length enzyme level, FIG. 3
  expression of activated cleaved caspase-8 and activated caspase-3 according to concentration: decreased in a dose-dependent manner
[6]; as early as day 1 after MCAO
  size of the infarcted area compared to Mock (PBS)- or Scr-FTP-treatment: significantly reduced the size of the infarcted area
[6]; day 1
  infarct volume: 26%
[6]; day 2
  infarct volume: 29%
[6]; day 3
  infarct volume: 18%
[6]; day 5
  infarct volume: 7%
[6]; day 5 after reperfusion
  recovery from the infarct: almost completely recovered
[7]
  interstitial edema and pyknotic nuclei: started to reduce on day 1 after reperfusion and were alleviated on day 5 thereafter
[8]; day 1 after reperfusion
  number of apoptotic cells (TUNEL positive cells): 26%
[8]; day 5 after reperfusion
  number of apoptotic cells (TUNEL positive cells): 9%
[9]; first of three values printed for 1 to 5 days after reperfusion
  animals survived: 90%
[9]; second of three values printed for 1 to 5 days after reperfusion
  animals survived: 80%
[9]; third of three values printed for 1 to 5 days after reperfusion
  animals survived: 80%
[9]
  rats that died over time: 2 rats
[10]; FIG. 4I
  neurological deficits score compared to the saline-treated group: improved
[10]; grade 0-4, first of four values between day 1 and day 5 after reperfusion
  neurological functions, average grade: 3.3
[10]; grade 0-4, fourth of four values between day 1 and day 5 after reperfusion
  neurological functions, average grade: 1.3
[10]; grade 0-4, second of four values between day 1 and day 5 after reperfusion
  neurological functions, average grade: 2.3
[10]; grade 0-4, third of four values between day 1 and day 5 after reperfusion
  neurological functions, average grade: 2.3

## YCNSTVCY [ScrFTP, scrambled peptide used as a control peptide, reference compound]
[2]; [12]
  binding to Fas-expressing hypoxic cells: did not bind to the hypoxic cells
[5]; FIG. 2C
  decrease of cleaved caspase-8: did not decrease cleaved caspase 8
[9]
  rats that died over time: 11 rats
[10]; between day 1 and day 5
  progressive effect on behavior after MCAO: worsened

## Scr-A^488: scrambled peptide labeled with Alexa^488 (YCNSTVCY; cysteine pairing not given here; also: labeled with Alexa-488, position not given here) [reference compound]
[1]
  fluorescence exposure in the liver and kidneys, Scr-A^488 group versus FTP-A^488 group: much more
  fluorescence signal in other organs: no signal was found
  fluorescence signal in the lungs: slight fluorescence signal
  localization of labeled peptide in the brain: strong localization
  retention of labeled peptide in the brain: not maintained

B1: scrambled peptide (Scr-FTP) (peptide)
peptide: YCNSTVCY
modifications: cysteine pairing not given here; also: Alexa488 label in binding assays, site not given here
notes: also called scrambled-FTP; Scr-A488
[11]
  binding result: no binding
